Results reported in patent US20130303439A1, “CHIMERIC PEPTIDES INCLUDING A PENETRATING PEPTIDE AND A BINDING DOMAIN OF PP2A CATALYTIC SUBUNIT TO CASPASE-9” (Institut National de la Sante et de la Recherche Medicale …, priority 2010, published 2013).
No end group written: not given here.

How the values were obtained:
human caspase-9 = molecular target: T1, human caspase-9 (Homo sapiens, UniProt P55211); assay: Caspase-9-binding assay on cellulose-bound peptides containing human PP2Ac sequences; conditions: dodecapeptides bound onto cellulose membrane
T1 sequence (P55211 1-416): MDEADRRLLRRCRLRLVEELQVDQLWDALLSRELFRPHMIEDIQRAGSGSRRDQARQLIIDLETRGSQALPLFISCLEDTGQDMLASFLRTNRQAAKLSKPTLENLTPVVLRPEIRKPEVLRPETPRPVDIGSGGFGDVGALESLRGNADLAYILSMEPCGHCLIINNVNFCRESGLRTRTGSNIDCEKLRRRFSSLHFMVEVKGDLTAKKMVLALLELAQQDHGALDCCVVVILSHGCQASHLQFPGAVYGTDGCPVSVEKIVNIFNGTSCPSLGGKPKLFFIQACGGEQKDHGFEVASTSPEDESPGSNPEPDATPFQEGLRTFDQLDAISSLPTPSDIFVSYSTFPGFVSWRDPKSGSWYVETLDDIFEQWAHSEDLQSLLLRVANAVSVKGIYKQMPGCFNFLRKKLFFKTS
Description: Overlapping dodecapeptides covering the whole human PP2Ac sequence were prepared by atomated spot synthesis (Abimed, Langerfield, Germany) onto an amino-derived cellulose membrane, as described (Frank and Overwin, 1996 Meth. Mol. Biol. 66, 149-169; Gausepohl et al., 1992 Pept Res, 5, 315-320). The membrane was saturated using 3% BSA and 3% non-fat dry milk, incubated with purified human caspase-9 and after several washing steps, incubates with anti-caspase-9 antibody, followed by PO-conjugated secondary antibody. Positive spots were visualized using the ECL system.
To identify peptides containing PP2Ac sequences able to binding to caspase-9, a series of 150 overlapping dodecapeptides (shift of 2 amino acids) from human PP2Ac (sequence deduced from NCBI, accession number NP_00270601) were bound onto a cellulose membrane and incubated with purified caspase-9.

[1] = Cell penetration / internalization of peptides; format: cell-based
PP2Ac = molecular target: T2, PP2Ac (Mus musculus, UniProt P63330); assay: Pull down assay of biotinylated peptides with cell lysate, Western blot with PP2Ac antibody; format: binding, murine; conditions: cellular extracts from IL-2-stimulated cells
T2 construct: endogenous in cells; host or cells: TS1αβ murine T cell line, IL-2-stimulated, NP-40 lysate
T2 sequence (P63330 whole entry): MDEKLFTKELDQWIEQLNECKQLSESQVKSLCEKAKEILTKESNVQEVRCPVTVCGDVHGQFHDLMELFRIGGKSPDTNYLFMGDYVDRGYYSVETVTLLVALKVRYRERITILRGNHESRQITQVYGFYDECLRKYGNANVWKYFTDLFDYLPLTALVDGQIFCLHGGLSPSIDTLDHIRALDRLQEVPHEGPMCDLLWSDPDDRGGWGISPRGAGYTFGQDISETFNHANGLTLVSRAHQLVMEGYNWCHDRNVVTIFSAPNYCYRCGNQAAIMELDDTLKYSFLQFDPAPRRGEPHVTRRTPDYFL
Description: Biotinylated peptides were preincubated 2 h at 0-100 μM (in final concentration with lysate) at room temperature with 30 μl of streptavidin-coated immunomagnetic beads (Calbiochem, San Diego Calif.). During this time, […] exponentially growing TS1αβ cells were first washed twice with PBS and then lysed 10 minutes on ice in 400 μl of lysis buffer (50 mM Tris pH7.4, 150 mM NaCl, 20% glycerol, 1% NP-40, 10 mM EDTA, 1 mM PhenylMethylSulfonyl Fluoride, 10 mM NaF, 1 mM orthovanadate, “complete, EDTA-free” protease inhibitor cocktail from Roche).
Lysates were clarified at 13000 g for 10 minutes at 4° C. and were incubated with biotinylated peptides associated with the streptavidin-coated immunomagnetic beads 2 h at 4° C. Biotinylated peptides were pulled down with streptavidin beads and washed two times in 700 μl of lysis buffer on ice. Bound proteins and unbound lysates were then analyzed by SDS-PAGE and Western Blotting using PP1c or PP2Ac antibodies.
To determine the capacity of DPT-C9 to interact with PP2Ac, the inventors performed pull-down experiments using cellular extracts from IL-2-stimulated cells incubated with biotinylated peptides or beads alone.

TS1αβ cells = assay: Cell death assay (annexin V / PI flow cytometry); format: cell-based, murine; conditions: peptides at 150 μM
Description: (§1) An Annexin-V-FITC conjugated kit (Roche) was used for the assessment of outer leaflet exposure of phosphatidylserine (PS) in the plasma membrane of apoptotic cells. Staining was performed according to the manufacturer's instructions. A total of […] cells were analyzed by flow cytometry in a FACSCalibur cytofluometer (BD Biosciences). Necrotic cells were excluded by propidium iodide (PI) staining, and single annexin V positive cells were considered apoptotic. For apoptotic analysis the different peptides were used at 150 μM.
Using flow cytometry detection of annexin V and PI, the inventors analyzed the capacity of DPT-C9 to induce apoptosis in TS1αβ cells cultured in presence of IL-2. In contrast to non penetrating C9 peptide, DPT-C9 induced a 6-fold increase of apoptosis.

Daudi = assay: Cell death assay (annexin V / PI flow cytometry); format: cell-based, human; conditions: peptides at 150 μM
Description: as §1

HeLa = assay: Cell death assay (annexin V / PI flow cytometry); format: cell-based, human; conditions: peptides at 150 μM
Description: as §1

Jurkat = assay: Cell death assay (annexin V / PI flow cytometry); format: cell-based, human; conditions: peptides at 150 μM
Description: as §1

CTLL = assay: Cell death assay (annexin V / PI flow cytometry); format: cell-based; conditions: murine CTLL; peptides at 150 μM
Description: as §1

Daudi cells = assay: Apoptosis assay (Annexin V-FITC), Example 2; format: cell-based, human; conditions: FIG. 1: 100 microM, 12 and 24 h, method says 150 mM, compared to control non-treated
Description: FIG. 1. Daudi cell line was cultured in RPMI 1640 medium in the presence of DPT-PP2Ah peptide (100 microM). At 12 and 24 h, we analyze the apoptotic effect of the peptide by annexine stainin.
(§2) Annexin V-FITC kit was used for detection of apoptosis and staining was performed according to the manufacturer's instructions. A total of 1×10^5 cells were analyzed by flow cytometry in a FACSCalibur cytometer (BD Biosicences). Necrotic cells were excluded by PI staining and annexin V positive cells were considered apoptotic. The effect of DPT-PP2Ah was compared to untreated control cells or to DPT-C9h-treated cells. Penetrating peptides were used at […]. The shuttle alone (DPT-sh1) was also used as a control.

[2] = test system: primary cells isolated from xenograft model of breast cancer (BC52); assay: Apoptosis by annexin staining in primary cells from xenograft model; format: cell-based; conditions: 100 microM, 16 h, compared to control non-treated cells
Description: (§3) FIG. 2 Cell isolated form xenograft models of lung cancer (LCF25), breast cancer (BC52) and uveal melanoma (KMP41) were cultured in DMEM medium in the absence (control) or in the presence of 100 microM of DPT-PP2Ah peptide. After 16 h of culture, apoptosis was estimated by annexin staining.
as §2

[3] = test system: primary cells isolated from xenograft model of lung cancer (LCF25); assay: as above; format: cell-based; conditions: 100 microM, 16 h, compared to control non-treated cells
Description: as §3, §2

[4] = test system: primary cells isolated from xenograft model of uveal melanoma (KMP41); assay: as above; format: cell-based; conditions: 100 microM, 16 h, compared to control non-treated cells
Description: as §3, §2

[5] = test system: triple negative breast cancer model BC11; assay: In vivo tumor growth inhibition of primary human breast cancer xenografts; design: species or system mice; conditions: once daily for 5 weeks
Description: The primary human xenografts were obtained as previously described (Marangoni et al., (2007) Clin Cancer Res 13:3989-3998, de Plater et al., (2010) Br J Cancer 103:1192-1200. Spontaneously growing mammary tumors […] were xenografted into nude immunodeficient mice to allow pharmacological assessments, and maintained from nude mouse to nude mouse serially passages.
For therapeutic experimental assays, 5- to 8-week old Swiss nu/nu female mice received a subcutaneous graft of tumor fragments with a volume of approximately 15 mm^3. Tumors developed at the graft site 2 to 6 weeks later. Mice bearing growing tumors with a volume of 40 to 200 mm^3 were individually identified and randomly assigned to the control or treatment groups (9-10 animals in each group) and treatments were started on day 1. Mice were weighed twice a week. Tumour-bearing mice were sacrificed when the tumor volume reached 2500 mm^3, defined as the ethical limit. Tumor volumes and antitumor activity were evaluated as previously reported (Marangoni et al., (2007) Clin Cancer Res 13:3989-3998).
DPT-PP2Ah peptide diluted in water/glucose (1 to 25 mg/kg) was given by intraperitoneally route 7 days per week.
To evaluate the potential antitumor effect of DPT-PP2Ah, we treated mice bearing the triple negative breast cancer model BC11. […]

[6] = molecular target: T3, caspase-9 from lysate of murine TS1αβ cells (mouse, UniProt Q8C3Q9 1-454, limits assumed); assay: pull-down from IL-2-stimulated TS1αβ cell lysate with biotinylated peptide on streptavidin beads, Western blot
T3 construct: Endogenous protein in the lysate; also called murine caspase-9; mouse caspase-9
T3 sequence (looked up): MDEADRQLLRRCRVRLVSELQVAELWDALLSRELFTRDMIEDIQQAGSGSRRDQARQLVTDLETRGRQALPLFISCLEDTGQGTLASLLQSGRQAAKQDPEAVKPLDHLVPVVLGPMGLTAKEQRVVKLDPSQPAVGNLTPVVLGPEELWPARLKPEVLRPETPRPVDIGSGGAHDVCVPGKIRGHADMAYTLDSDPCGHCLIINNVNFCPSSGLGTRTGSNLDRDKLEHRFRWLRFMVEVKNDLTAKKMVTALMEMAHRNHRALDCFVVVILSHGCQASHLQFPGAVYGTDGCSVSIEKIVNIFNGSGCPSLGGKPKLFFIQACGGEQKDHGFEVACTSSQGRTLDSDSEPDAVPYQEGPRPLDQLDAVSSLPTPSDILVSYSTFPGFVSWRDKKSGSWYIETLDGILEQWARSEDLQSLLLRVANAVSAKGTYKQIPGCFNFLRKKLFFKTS

[7] = molecular target: T4, PP2Ac (catalytic subunit of PP2A) from lysate of IL-2-stimulated murine TS1αβ cells (mouse, UniProt P63330 1-309); assay: as above
T4 construct: Endogenous protein from cell lysate, detected by Western blot with a PP2Ac antibody; It may have been part of a PP2A holoenzyme in the lysate
T4 sequence (P63330 whole entry): as the sequence (P63330 whole entry) above

## DTLDHIRALDRL (Synthetic PP2A peptide) [dodecapeptide from human PP2Ac]
Human caspase-9
  binding to purified caspase-9: bind to purified caspase-9

## HIRALDRLQEVP (Synthetic PP2A peptide) [dodecapeptide from human PP2Ac]
Human caspase-9
  binding to purified caspase-9: bind to purified caspase-9

## LDHIRALDRLQE (Synthetic PP2A peptide) [dodecapeptide from human PP2Ac]
Human caspase-9
  binding to purified caspase-9: bind to purified caspase-9

## LDRLQEVPHEGP (Synthetic PP2A peptide) [dodecapeptide from human PP2Ac]
Human caspase-9
  binding to purified caspase-9: bind to purified caspase-9

## RALDRLQEVPHE (Synthetic PP2A peptide) [dodecapeptide from human PP2Ac]
Human caspase-9
  binding to purified caspase-9: bind to purified caspase-9

## VKKKKIKREIKI [DPT-sh1]
[1]
  Cell penetration: Yes
  internalized: are internalized
PP2Ac
  interact with PP2Ac: do not interact with PP2Ac
TS1αβ cells
  induction of apoptosis / cell death (in words): behaves as negative control

## VKKKKIKREIKI-YVETLDGIFEQWAHSEDL (VKKKKIKREIKIYVETLDGIFEQWAHSEDL; Synthetic human DPT-C9) [DPT-C9h]
TS1αβ cells
  induction of apoptosis / cell death (in words): unable to cause cell death
Daudi
  increase of apoptosis: 5 fold
HeLa
  increase of apoptosis: 5 fold
Jurkat
  increase of apoptosis: 5 fold
CTLL
  cell death (in words): unable to cause cell death
Daudi cells
  apoptosis (annexin staining): lower apoptosis

## VKKKKIKREIKIDTLDHIRALDRLQEVPHEGP (Synthetic DPT-PP2Ah)
Daudi cells
  apoptosis (annexin staining): strongly induces apoptosis
[2]
  apoptosis (annexin staining): induces apoptosis
[3]
  apoptosis (annexin staining): induces apoptosis
[4]
  apoptosis (annexin staining): induces apoptosis
[5]; 1 mg/kg intraperitoneally, relative to 5 mg/kg
  tumor growth inhibition (TGI): lower
[5]; 5 mg/kg intraperitoneally, end of treatment
  tumor growth inhibition (TGI): significant tumor growth inhibition

B1: C9 peptide (mouse caspase-9 aa 401-418, PP2Ac binding domain) (peptide)
peptide: YIETLDGILEQWARSEDL
modifications: also: biotinylated, position not given here
notes: Synthetic, non cell-penetrating peptide; Used biotinylated on streptavidin beads in the pull-down; also called C9m
[6]
  binding result: no binding (tested: 0-100 µM peptide)

B2: DPT-C9r (fusion of DPT-sh1 and C9 reverse sequence) (peptide)
peptide: VKKKKIKREIKILDESRAWQELIGDLTEIY
modifications: also: biotinylated, position not given here
notes: Negative control peptide; Used biotinylated in the pull-down
[7]
  binding result: no binding (tested: 0-100 µM peptide)

## VKKKKIKREIKIYIETLDGILEQWARSEDL (also: biotinylated, position not given here, Used biotinylated in the pull-down) [DPT-C9 (fusion of DPT-sh1 shuttle and C9 sequence)]
[6]
  binding result: no binding (tested: 0-100 µM peptide)
